Where two headings read alike, the source gives them in different places.
Test system: cancer cell lines
Assay: Cancer cell proliferation activity (CellTiterGlo, 72 h)
Format: cell-based
Details: 72 h, 72 h, read-out: IC50
Procedure, shortened: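 Cells seeded overnight at 37 °C, then dosed with compound at 0.1% final DMSO and incubated 72 h at 37 °C (5% or 10% CO2 by medium).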

In the case of CCC[C@]1(CO)O[C@@H](n2cnc3c(N)nc(F)nc32)C[C@@H]1O [Cpd. No. 129, (2R,3S,5R)-5-(6-amino-2-fluoro-9H-purin-9-yl)-2-(hydroxymethyl)-2-propyltetrahydrofuran-3-ol], the IC50 (5637 cell line (bladder)) is reported as 560 nM, the IC50 (AS49 cell line (lung)) is reported as 3010 nM and the IC50 (CLS439 cell line (bladder)) is reported as 3260 nM. It also gave an IC50 (HS729 cell line (muscle)) of 870 nM, an IC50 (JAR cell line (placenta)) of 320 nM and an IC50 (Homo sapiens, 22Rv1, 72 h, 22RV1 cell line (prostate)) of 1080 nM. For the same compound, the IC50 (Homo sapiens, 786-0, 72 h, 786O cell line (kidney)) was 300 nM, the IC50 (Homo sapiens, A204, 72 h, A204 cell line (muscle)) was 220 nM and the IC50 (Homo sapiens, A673, 72 h, A673 cell line (bone)) was 1440 nM. It also gave an IC50 (Homo sapiens, A2780, 72 h, A2780 cell line (ovary)) of 740 nM, an IC50 (Homo sapiens, A-375, 72 h, A375 cell line (skin)) of 200 nM and an IC50 (Homo sapiens, A-431, 72 h, A431 cell line (skin)) of 330 nM. For the same compound, the IC50 (Homo sapiens, ACHN, ACHN cell line (kidney)) was 2540 nM, the IC50 (Homo sapiens, ASPC1, 72 h, ASPC1 cell line (pancreas)) was 220 nM and the IC50 (Homo sapiens, BT-20, 72 h, BT20 cell line (breast)) was 340 nM. It also gave an IC50 (Homo sapiens, BXPC-3, 72 h, BXPC3 cell line (pancreas)) of 2530 nM, an IC50 (Homo sapiens, C-33-A, C33A cell line (cervical)) of 630 nM and an IC50 (Homo sapiens, CAKI-1, 72 h, CAKI1 cell line (kidney)) of 20 nM. The IC50 (Homo sapiens, COLO 205, 72 h, COLO205 cell line (colon)) was 760 nM, the IC50 (Homo sapiens, COLO-678, 72 h, COLO678 cell line (colon)) was 1990 nM and the IC50 (Homo sapiens, Ca-Ski, CASKI cell line (cervical)) was 160 nM. For the same compound, the IC50 (Homo sapiens, Caco-2, 72 h, CACO2 cell line (colon)) was 610 nM, the IC50 (Homo sapiens, Calu-6, 72 h, CALU6 cell line (lung)) was 300 nM and the IC50 (Homo sapiens, DLD-1, 72 h, DLD1 cell line (colon)) was 2030 nM. The IC50 (Homo sapiens, DU-145, 72 h, DU145 cell line (prostate)) was 120 nM, the IC50 (Homo sapiens, EFO-21, 72 h, EFO21 cell line (ovary)) was 330 nM and the IC50 (Homo sapiens, EJ-28, 72 h, EJ28 cell line (bladder)) was 220 nM. For the same compound, the IC50 (Homo sapiens, Granta-519, 72 h, GRANTA-519 cell line (hematological)) was 2600 nM, the IC50 (Homo sapiens, HCT-15, 72 h, HCT15 cell line (colon)) was 1460 nM and the IC50 (Homo sapiens, HCT-116, 72 h, HCT116 cell line (colon)) was 480 nM. For the same compound, the IC50 (Homo sapiens, HEK293, 72 h, HEK293 cell line (kidney)) was 380 nM, the IC50 (Homo sapiens, HL-60, 72 h, HL-60 cell line (hematological)) was 330 nM and the IC50 (Homo sapiens, HT-29, 72 h, HT29 cell line (colon)) was 220 nM. It also gave an IC50 (Homo sapiens, HT-1080, 72 h, HT1080 cell line (connective tissue)) of 3630 nM, an IC50 (Homo sapiens, HeLa, HELA cell line (cervical)) of 440 nM and an IC50 (Homo sapiens, HepG2, 72 h, HEPG2 cell line (liver)) of 300 nM. It also gave an IC50 (Homo sapiens, Hs-578T, HS578T cell line, breast) of 550 nM, an IC50 (Homo sapiens, IGROV-1, 72 h, IGROV1 cell line (ovary)) of 200 nM and an IC50 (Homo sapiens, IMR-90, 72 h, IMR90 cell line, lung) of 410 nM. The IC50 (Homo sapiens, J82, 72 h, J82 cell line (bladder)) was 470 nM, the IC50 (Homo sapiens, JEG-3, 72 h, JEG3 cell line (placenta)) was 290 nM and the IC50 (Homo sapiens, JIMT-1, 72 h, JIMT1 cell line (breast)) was 80 nM. It also gave an IC50 (Homo sapiens, K562, 72 h, K-562 cell line (hematological)) of 5370 nM, an IC50 (Homo sapiens, Kasumi 1, 72 h, KASUMI-1 cell line (hematological)) of 60 nM and an IC50 (Homo sapiens, L-363, 72 h, L-363 cell line (hematological)) of 290 nM. The IC50 (Homo sapiens, LoVo, LOVO cell line (colon)) was 140 nM, the IC50 (Homo sapiens, MCF7, 72 h, MCF7 cell line (breast)) was 9700 nM and the IC50 (Homo sapiens, MDA-MB-231, 72 h, MDAMB231 cell line (breast)) was 2850 nM. The IC50 (Homo sapiens, MDA-MB-435, 72 h, MDAMB435 cell line (skin)) was 1400 nM, the IC50 (Homo sapiens, MDA-MB-436, 72 h, MDAMB436 cell line (breast)) was 190 nM and the IC50 (Homo sapiens, MDA-MB-468, 72 h, MDAMB468 cell line (breast)) was 270 nM. For the same compound, the IC50 (Homo sapiens, MG-63, 72 h, MG63 cell line (bone)) was greater than 50000 nM, the IC50 (Homo sapiens, MHH-ES-1, 72 h, MHHES1 cell line (bone)) was 400 nM and the IC50 (Homo sapiens, MIA PaCa-2, 72 h, MIAPACA2 cell line (pancreas)) was greater than 50000 nM. It also gave an IC50 (Homo sapiens, MINO, MINO cell line (hematological)) of 150 nM, an IC50 (Homo sapiens, MV4-11, 72 h, MV4-11 cell line (hematological)) of 50 nM and an IC50 (Homo sapiens, NCI-H23, 72 h, NCI-H23 cell line (lung)) of 410 nM. For the same compound, the IC50 (Homo sapiens, NCI-H82, 72 h, NCIH82 cell line (lung)) was 390 nM, the IC50 (Homo sapiens, NCI-H292, 72 h, NCIH292 cell line (lung)) was 4170 nM and the IC50 (Homo sapiens, NCI-H460, 72 h, NCIH460 cell line (lung)) was 500 nM. The IC50 (Homo sapiens, OVCAR-3, 72 h, OVCAR3 cell line (ovary)) was 170 nM, the IC50 (Homo sapiens, OVCAR-4, 72 h, OVCAR4 cell line (ovary)) was 560 nM and the IC50 (Homo sapiens, PANC-1, 72 h, PANC1 cell line (pancreas)) was greater than 50000 nM. For the same compound, the IC50 (Homo sapiens, PC-3, 72 h, PC3 cell line (prostate)) was 470 nM, the IC50 (Homo sapiens, PLC-PRF-5, 72 h, PLCPRF5 cell line (liver)) was 2020 nM and the IC50 (Homo sapiens, Panc1005, 72 h, PANC1005 cell line (pancreas)) was 230 nM. The IC50 (Homo sapiens, RD, RD cell line (muscle)) was 640 nM, the IC50 (Homo sapiens, Ramos, RAMOS cell line (hematological)) was 520 nM and the IC50 (Homo sapiens, SAOS-2, 72 h, SAOS2 cell line (bone)) was 300 nM. The IC50 (Homo sapiens, SF-268, 72 h, SF268 cell line (brain)) was 5030 nM, the IC50 (Homo sapiens, SF-295, 72 h, SF295 cell line (brain)) was 1650 nM and the IC50 (Homo sapiens, SK-BR-3, 72 h, SKBR3 cell line (breast)) was 50 nM. The IC50 (Homo sapiens, SK-HEP1, 72 h, SKHEP1 cell line (liver)) was 2410 nM, the IC50 (Homo sapiens, SK-LMS-1, 72 h, SKLMS1 cell line (uterus)) was 300 nM and the IC50 (Homo sapiens, SK-MEL-5, 72 h, SKMEL5 cell line, skin) was 3170 nM. It also gave an IC50 (Homo sapiens, SK-MEL-28, 72 h, SKMEL28 cell line (skin)) of 680 nM, an IC50 (Homo sapiens, SK-N-AS, SKNAS cell line (brain)) of 370 nM and an IC50 (Homo sapiens, SK-N-SH, SKNSH cell line (brain)) of 260 nM. It also gave an IC50 (Homo sapiens, SK-OV-3, 72 h, SKOV3 cell line (ovary)) of 460 nM, an IC50 (Homo sapiens, SNB-75, 72 h, SNB75 cell line (brain)) of 1380 nM and an IC50 (Homo sapiens, SU-DHL10, 72 h, SU-DHL-10 cell line (hematological)) of 460 nM. It also gave an IC50 (Homo sapiens, SU-DHL-6, 72 h, SU-DHL-6 cell line (hematological)) of 240 nM, an IC50 (Homo sapiens, SW-620, 72 h, SW620 cell line (colon)) of 360 nM and an IC50 (Homo sapiens, T-24, 72 h, T24 cell line (bladder)) of 600 nM. It also gave an IC50 (Homo sapiens, TE-671, 72 h, TE671 cell line (muscle)) of 2440 nM, an IC50 (Homo sapiens, THP-1, 72 h, THP-1 cell line (hematological)) of 2270 nM and an IC50 (Homo sapiens, U2OS, U2OS cell line (bone)) of 510 nM. It also gave an IC50 (Homo sapiens, U-87 MG, U87MG cell line (brain)) of 3130 nM, an IC50 (Homo sapiens, UMUC3, 72 h, UMUC3 cell line (bladder)) of 3040 nM and an IC50 (Homo sapiens, UO-31, 72 h, UO31 cell line (kidney)) of 240 nM. It also gave an IC50 (Homo sapiens, WSU-NHL, WSU-NHL cell line (hematological)) of 460 nM, an IC50 (MT-3, 72 h, MT3 cell line (breast)) of 280 nM and an IC50 (NCI-H358M, NCIH358M cell line (lung)) of 270 nM. For the same compound, the IC50 (PBMC, PBMC (hematological)) was greater than 50000 nM and the IC50 (RD-ES, RDES cell line (bone)) was 250 nM.

Reference: patent US20250215039A1, “NUCLEOSIDES FOR TREATING CANCER” (PRIMEFOUR THERAPEUTICS, INC., priority 2022, published 2025)
